Experimental data from patent EP4559908A1, “HETEROARYL DERIVATIVE COMPOUND AND USE THEREOF” (S2CBio Inc., priority 2022, dated 2024).

Biological target: T1, human ANO6 (variant 5) (Homo sapiens, UniProt Q4KMQ2)
T1 construct: expressed in transfected cells; host or cells: Fischer rat thyroid (FRT) cells
T1 sequence (Q4KMQ2 1-931 isoform Q4KMQ2-2): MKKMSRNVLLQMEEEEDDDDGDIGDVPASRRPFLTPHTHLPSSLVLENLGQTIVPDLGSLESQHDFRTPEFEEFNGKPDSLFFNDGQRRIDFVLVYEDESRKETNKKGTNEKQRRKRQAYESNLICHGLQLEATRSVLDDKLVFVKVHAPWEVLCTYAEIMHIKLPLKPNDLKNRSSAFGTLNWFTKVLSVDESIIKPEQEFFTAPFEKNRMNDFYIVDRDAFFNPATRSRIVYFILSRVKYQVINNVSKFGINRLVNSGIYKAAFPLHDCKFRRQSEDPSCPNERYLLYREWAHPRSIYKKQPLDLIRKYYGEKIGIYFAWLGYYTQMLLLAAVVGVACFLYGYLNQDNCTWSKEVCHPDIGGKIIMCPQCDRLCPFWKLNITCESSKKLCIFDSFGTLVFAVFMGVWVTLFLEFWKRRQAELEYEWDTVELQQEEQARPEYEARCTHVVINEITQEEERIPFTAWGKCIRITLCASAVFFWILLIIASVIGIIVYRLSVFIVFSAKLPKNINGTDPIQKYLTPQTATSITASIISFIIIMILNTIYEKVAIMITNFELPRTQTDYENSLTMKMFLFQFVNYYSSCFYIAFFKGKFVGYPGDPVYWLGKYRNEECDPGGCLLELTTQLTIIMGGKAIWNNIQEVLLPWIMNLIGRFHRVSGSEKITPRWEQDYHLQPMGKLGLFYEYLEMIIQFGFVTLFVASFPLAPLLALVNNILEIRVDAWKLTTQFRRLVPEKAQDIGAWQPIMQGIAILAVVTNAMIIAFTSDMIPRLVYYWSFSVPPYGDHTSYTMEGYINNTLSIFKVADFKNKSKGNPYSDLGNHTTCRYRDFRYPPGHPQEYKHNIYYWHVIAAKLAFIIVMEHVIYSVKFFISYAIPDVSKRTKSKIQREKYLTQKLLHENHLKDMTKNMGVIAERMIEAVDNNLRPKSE
Experiment: Lact C2 assay (measuring phosphatidylserine externalization scramblase function)
Type: cell-based
Details: FRT, FRT cells expressing human ANO6 (variant 5), ionomycin 10 µM, Lact-C2-GFP fluorescence, average of three tests; for inhibition at 1 µM: compound 1 µM, read-out: % Inhibition 1 µM; for inhibition at 0.05 µM: compound 50 nM, read-out: % Inhibition 50 nM
Protocol: Ionomycin (Alomonelab, cat. # I-700), DAPI (Sigma- Aldrich, cat. # D8417), paraformaldehyde (Biosesang, cat. #P2031), Lionheart FX automated fluorescence microscope (BioTek), Gen5™ software program (BioTek), and Image J analysis software program.
After the incubation, the cells were treated with compounds dissolved in DMSO to 1% v/v in each well at each concentration (50 nM, 100 nM, and 1 µM) and reacted for 10 minutes. Thereafter, each well was treated with ionomycin to a final concentration of 10 µM, allowed to react for 10 minutes, and then washed with 200 µL PBS. After washing, each well was treated with 50 µL of Lactadherin-C2 (Lact-C2)-GFP mixed in DMEM medium to a final concentration of 500 nM to stain phosphatidylserine, and cultured at 37°C for 10 minutes. After completion of the reaction, the cells were washed with 200 µL PBS, and fixed with 4% paraformaldehyde for 5 minutes at room temperature. For morphological analysis, DAPI solution was added, and the cells were incubated for 15 minutes, followed by washing with PBS. The fluorescence intensity of Lact-C2-GFP bound to phosphatidylserine on the cell surface was measured using an automated fluorescence microscope. For quantitative analysis of the fluorescence intensity of Lact-C2-GFP, BioTek Gen5™ software and Image J analysis software programs were used.
Phosphatidylserine externalization inhibitory activity (%) by the compound was calculated through the following analysis method. Specifically, the background fluorescence value was subtracted from the measured Lact-C2-GFP fluorescence value, and the fluorescence value of the ionomycin non-treatment group and the ionomycin-treatment group in the same row where each test group was located in a 96-well microplate were calculated. In order to calculate the inhibitory activity (%) by the compound, the relative inhibitory activity was calculated by setting the compound and ionomycin non-treatment group to 100% inhibitory activity and the ionomycin alone treatment group to 0% inhibitory activity.

inhibition at 1 µM	inhibition at 0.05 µM	Structure (SMILES)
> 60%		COC(=O)c1ccc2nc(-c3cccc(Nc4ccc(-c5ncccn5)cc4)c3)[nH]c2c1 [Example 78, methyl 2-(3-((4-(pyrimidin-2-yl)phenyl)amino)phenyl)-1H-benzo[d]imidazol-6-carboxylate]
	> 60%	FC(F)(F)c1cc2[nH]c(-c3cccc(Nc4ccc(-c5cccnn5)cc4)c3)nc2cn1 [Example 79, N-(4-(pyridazin-3-yl)phenyl)-3-(6-(trifluoromethyl)-1H-imidazolo[4,5-c]pyridin-2-yl)aniline]
	> 60%	Fc1cc2nc(-c3cccc(Nc4ccc(-c5cccnn5)cc4)c3)[nH]c2cc1F [Example 81, 3-(5,6-difluoro-1H-benzo[d]imidazol-2-yl)-N-(4-pyridazin-3-ylphenyl)aniline]
	> 60%	Clc1ccc2nc(-c3cccc(Nc4ncc(-c5ccccn5)cn4)c3)[nH]c2c1 [Example 82, N-[3-(6-chloro-1H-benzo[d]imidazol-2-yl)phenyl]-5-(2-pyridyl)pyrimidin-2-amine]
	> 60%	FC(F)(F)c1ccc2nc(-c3cccc(Nc4ncc(-c5ccccn5)cn4)c3)[nH]c2c1 [Example 83, 5-(2-pyridyl)-N-[3-[6-(trifluoromethyl)-1H-benzo[d]imidazol-2-yl]phenyl]pyrimidin-2-amine]
> 60%		Clc1cc2[nH]c(-c3cccc(Nc4ccc(-c5cccnn5)cc4)c3)nc2cn1 [Example 84, 3-(6-chloro-1H-imidazo[4,5-c]pyridin-2-yl)-N-(4-pyridazin-3-ylphenyl)aniline]
> 60%		FC(F)(F)c1cc2[nH]c(-c3cccc(Nc4ccc(-c5ccncn5)cc4)c3)nc2cn1 [Example 86, N-(4-pyrimidin-4-ylphenyl)-3-[6-(trifluoromethyl)-1H-imidazo[4,5-c]pyridin-2-yl]aniline]
> 60%	> 60%	FC(F)(F)c1ccc2nc(-c3cccc(Nc4ccc(-c5ccncn5)cn4)c3)[nH]c2c1 [Example 88, 5-pyrimidin-4-yl-N-[3-[6-(trifluoromethyl)-1H-benzo[d]imidazol-2-yl]phenyl]pyridin-2-amine]
> 60%	30 to 60%	FC(F)(F)c1cc2[nH]c(-c3cccc(Nc4ccc(-c5ccncn5)cn4)c3)nc2cn1 [Example 89, 5-pyrimidin-4-yl-N-[3-[6-(trifluoromethyl)-1H-imidazo[4,5-c]pyridin-2-yl]phenyl]pyridin-2-amine]
> 60%	> 60%	Fc1ccc2nc(-c3cccc(Nc4ccc(-c5ccccn5)cc4)c3)[nH]c2c1 [Example 92, 3-(6-fluoro-1H-benzo[d]imidazol-2-yl)-N-[4-(2-pyridyl)phenyl]aniline]
> 60%	30 to 60%	Cc1noc(-c2ccc3nc(-c4cccc(Nc5ccc(-c6cccnn6)cc5)c4)[nH]c3c2)n1 [Example 93, 3-(6-(3-methyl-1,2,4-oxadiazol-5-yl)-1H-benzo[d]imidazol-2-yl)-N-(4-(pyridazin-3-yl)phenyl)aniline]
> 60%		c1cc(Nc2ccc(-c3ccnnc3)cc2)cc(-c2nc3ccccc3[nH]2)c1 [Example 94, 3-(1H-benzo[d]imidazol-2-yl)-N-(4-pyridazin-4-ylphenyl)aniline]
> 60%	> 60%	Fc1cc2nc(-c3cccc(Nc4ccc(-c5ccncn5)cc4)c3)[nH]c2cc1F [Example 95, 3-(5,6-difluoro-1H-benzo[d]imidazol-2-yl)-N-(4-pyrimidin-4-ylphenyl)aniline]
> 60%	> 60%	Fc1ccc2nc(-c3cccc(Nc4ccc(-c5ccncn5)cc4)c3)[nH]c2c1 [Example 96, 3-(6-fluoro-1H-benzo[d]imidazol-2-yl)-N-(4-pyrimidin-4-ylphenyl)aniline]
> 60%		c1cc(Nc2ccc(C3CCCCC3)cc2)cc(-c2nc3ccccc3[nH]2)c1 [Example 97, 3-(1H-benzo[d]imidazol-2-yl)-N-(4-cyclohexylphenyl)aniline]
